Results reported in US20240366495A1, “COMPOSITION FOR AMELIORATING WRINKLES USING FERMENTED EXTRACT OF CANNABIS STEM AND PREPARATION METHOD THEREOF” (KOREA INSTITUTE OF SCIENCE AND TECHNOLOGY, priority 2023, published 2024).

Experiments:
HDFs = assay: Observation of cell morphology changes after UVB irradiation; assay type: cell-based, human; conditions: highest non-cytotoxic concentration, UVB 25 mJ/cm^2 after 2 hours, cultured 24 hours, FIG. 3
Description: An experiment for confirming an anti-wrinkle effect was conducted on each sample confirmed in Example 1.

[1] = system: human dermal fibroblasts (HDFs); conditions: sample 0 to 1000 μg/mL, 24 hours, MTT, FIG. 1 / FIG. 2
Description: First, the cytotoxicity of each sample was confirmed using the following method. After human dermal fibroblasts (HDFs) were cultured in a 96-well culture plate at a concentration of 1.5×10^4 cells/well for 24 hours to reach a clustering coefficient of 70 to 80%, and then the sample prepared in Example 1 was treated at a concentration of 0 to 1000 μg/mL, and cultured in an incubator (37° C., 5% CO2) for an additional 24 hours. […] The absorbance of each well was measured at 570 nm using a microplate reader.

O=C1O[C@H]([C@@H](O)CO)C(O)=C1O [vitamin C]
number of cells after UVB irradiation (HDFs): number of cells increased to the level of the untreated group | concentration at which cytotoxicity is exhibited [1]: ≥ 500 µg/mL
